Measured values taken from ChEMBL document CHEMBL1201862, “PubChem BioAssay data set” (2004).
Active and inactive are the calls of the source.

Tests used:
[1] = biological target: T1, Tyrosine-protein phosphatase non-receptor type 7 (Homo sapiens, UniProt P35236); test: Dose Response confirmation of compounds that inhibit HePTP. [Related pubchem assays (depositor defined):AID1059, AID1661, AID2085]; assay type: functional
T1 sequence (P35236 whole entry): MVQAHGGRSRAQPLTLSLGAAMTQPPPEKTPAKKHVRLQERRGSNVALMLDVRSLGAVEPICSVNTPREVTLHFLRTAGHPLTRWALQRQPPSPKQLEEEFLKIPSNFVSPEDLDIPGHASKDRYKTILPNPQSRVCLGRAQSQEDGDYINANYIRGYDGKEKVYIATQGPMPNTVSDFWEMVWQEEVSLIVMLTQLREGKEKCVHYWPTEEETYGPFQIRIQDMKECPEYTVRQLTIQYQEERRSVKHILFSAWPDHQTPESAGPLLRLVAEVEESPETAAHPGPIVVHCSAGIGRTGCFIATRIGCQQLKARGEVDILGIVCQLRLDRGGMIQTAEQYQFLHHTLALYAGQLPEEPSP

[2] = biological target: Dual specificity protein phosphatase 3 (Homo sapiens, UniProt P51452); test: Dose Response Confirmation of compounds that inhibit VHR1 in Fluorescent Assay. [Related pubchem assays (depositor defined):AID1661, AID1878]; assay type: functional
[3] = biological target: Low molecular weight phosphotyrosine protein phosphatase (Homo sapiens, UniProt P24666); assay type: functional; settings: read-out: IC50_Mean;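 note: Dose-response confirmation assay measuring inhibition of LMPTP enzyme activity by fluorescence intensity read-out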
[4] = protection from phage-mediated lysis, alamar blue read-out – E. coli UTI89, K1F phage, bacterial capsule biogenesis inhibitors (AID 488966); assay type: functional
Mu-type opioid receptor = Mu-type opioid receptor (Homo sapiens, UniProt P35372); test: SAR Analysis of Antagonists of the MOR Receptor using an Image-Based Assay - Set 3. [Related pubchem assays (depositor defined):AID1777, AID1785, AID1786, AID1966, AID2133, AID2136, AID2284, AID2285, AID2420]; assay type: functional
[5] = biological target: Delta-type opioid receptor (Homo sapiens, UniProt P41143); test: SAR Analysis of Antagonists of the DOR Receptor using an Image-Based Assay - Set 3. [Related pubchem assays (depositor defined):AID1777, AID1785]; assay type: functional;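 note: U2OS cells expressing DOR1 and beta-arrestin GFP stimulated with 100 nM SNC80; imaging of GFP-tagged beta-arrestin moving into spots after receptor activation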
[6] = biological target: T2, Kappa-type opioid receptor (Homo sapiens, UniProt P41145); test: SAR analysis of small molecule antagonists of the kappa opioid receptor via a luminescent beta-arrestin assay - Set 3. [Related pubchem assays (depositor defined):AID1777, AID1778, AID1785, AID1786, AID1966, AID2133, AID2136, AID2285, AID2495]; assay type: functional
[7] = biological target: T2, Kappa-type opioid receptor; test: SAR analysis of Antagonists of the Kappa Opioid Receptor (KOR) using an Image-Based Assay - Set 4. [Related pubchem assays (depositor defined):AID1777, AID1785]; assay type: functional
[8] = biological target: Voltage-dependent T-type calcium channel subunit alpha-1H (Homo sapiens, UniProt O95180); test: human CACNA1H calcium influx blockade – cell-based, synthetic library set 1, calcium flux (AID 493022); assay type: functional
[9] = biological target: T2, Kappa-type opioid receptor; test: SAR analysis of small molecule antagonists of the kappa opioid receptor via a luminescent beta-arrestin assay - Set 6. [Related pubchem assays (depositor defined):AID1777, AID1778, AID1785, AID1786, AID1966, AID2133, AID2136, AID2285]; assay type: functional
[10] = biological target: T2, Kappa-type opioid receptor; test: SAR analysis of small molecule antagonists of the kappa opioid receptor via a luminescent beta-arrestin assay - Set 4. [Related pubchem assays (depositor defined):AID1777, AID1778, AID1785, AID1786, AID1966, AID2133, AID2136, AID2285]; assay type: functional
Vero [11] = test: Vero 76 cell viability after compound exposure – Vero 76 cells, synthesized analogs, cytotoxicity control for West Nile virus antiviral project, SAR follow-up (AID 2414); assay type: functional; settings: Chlorocebus sabaeus
Vero [12] = test: Vero cell viability after compound exposure – synthesized analogs, set II, cytotoxicity control for West Nile virus antiviral project, SAR follow-up (AID 2402); assay type: functional; settings: Chlorocebus sabaeus
Vero [13] = test: host cell viability loss, Vero E6 – synthesized analogs, cytotoxicity control for West Nile virus antiviral project, SAR follow-up (AID 2244); assay type: functional; settings: Chlorocebus sabaeus
Vero [14] = test: antiviral protection of cells from WNV – synthesized analogs, SAR follow-up (AID 2238); assay type: functional, cell-based; settings: Chlorocebus sabaeus
Coagulation factor XII = biological target: T3, Coagulation factor XII (Homo sapiens, UniProt P00748); test: activated coagulation factor XII inhibitor potency, concentration-effect curve, cell-free (AID 716); assay type: functional
T3 sequence (P00748 whole entry): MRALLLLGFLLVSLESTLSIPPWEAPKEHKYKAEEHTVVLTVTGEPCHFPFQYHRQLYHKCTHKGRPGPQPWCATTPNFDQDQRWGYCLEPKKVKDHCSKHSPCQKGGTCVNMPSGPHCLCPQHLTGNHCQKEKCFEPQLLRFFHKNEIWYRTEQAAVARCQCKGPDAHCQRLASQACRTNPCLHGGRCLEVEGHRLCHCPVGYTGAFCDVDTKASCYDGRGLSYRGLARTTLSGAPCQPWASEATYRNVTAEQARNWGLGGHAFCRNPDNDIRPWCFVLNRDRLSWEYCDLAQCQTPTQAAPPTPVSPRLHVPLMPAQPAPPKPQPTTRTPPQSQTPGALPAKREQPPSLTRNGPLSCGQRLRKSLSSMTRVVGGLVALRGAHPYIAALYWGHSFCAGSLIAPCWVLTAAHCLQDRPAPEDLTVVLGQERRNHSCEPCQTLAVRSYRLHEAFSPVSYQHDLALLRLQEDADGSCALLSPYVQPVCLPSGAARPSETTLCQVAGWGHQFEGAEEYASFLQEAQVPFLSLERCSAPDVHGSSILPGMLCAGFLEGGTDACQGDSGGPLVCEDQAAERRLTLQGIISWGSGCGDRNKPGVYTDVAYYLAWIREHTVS

[15] = Trypanosoma cruzi growth suppression in host cells – NIH3T3 host cells, beta-gal luminescence, confirmation (AID 2044); assay type: functional, cell-based;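 note: intracellular parasites grown in NIH/3T3 mouse fibroblasts as host cells; luminescent beta-galactosidase reporter signal from transgenic T. cruzi replicating inside host cells; inhibitors lower the luminescence signal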
[16] = biological target: T4, Calpain-2 catalytic subunit (Sus scrofa, UniProt P43367); test: m-calpain protease blockers, concentration series – biochemical, fluorogenic peptide substrate, dose response (AID 1420); assay type: functional
T4 sequence (P43367 whole entry): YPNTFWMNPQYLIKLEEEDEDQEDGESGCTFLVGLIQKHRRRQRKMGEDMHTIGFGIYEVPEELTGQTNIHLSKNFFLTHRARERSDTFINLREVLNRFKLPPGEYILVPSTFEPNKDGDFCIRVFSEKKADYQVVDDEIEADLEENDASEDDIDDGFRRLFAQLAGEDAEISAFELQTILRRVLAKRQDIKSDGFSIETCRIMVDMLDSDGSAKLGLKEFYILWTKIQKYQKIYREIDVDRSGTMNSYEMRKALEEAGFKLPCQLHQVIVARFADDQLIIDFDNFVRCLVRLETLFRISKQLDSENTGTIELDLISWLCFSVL

[17] = NIH3T3 cell viability loss – ATP luminescence, mouse fibroblasts, counter-screen, dose response (AID 2010); assay type: functional, cell-based;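 note: cells exposed to compound for about 90 hours before reading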
[18] = biological target: NACHT, LRR and PYD domains-containing protein 3 (Homo sapiens, UniProt Q96P20); test: NALP3 inhibitors in yeast, dose response, luminescent (AID 488799); assay type: functional
[19] = biological target: Neurotensin receptor type 1 (Homo sapiens, UniProt P30989); assay type: functional;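 note: Image-based confirmatory dose-response assay measuring agonist activity at NTR1; NTR1-expressing U2OS osteosarcoma cells imaged for beta-arrestin GFP spot formation; agonist potency where compounds increase beta-arrestin recruitment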
[20] = HEK-293T viability loss after treatment – luminescence, T-cell screen hits, cytotoxicity control for TCR NF-kB inhibitor project, dose response (AID 489026); assay type: functional, cell-based;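 note: cells exposed to compound about 14 hours before the viability readout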

T2 sequence (P41145 whole entry): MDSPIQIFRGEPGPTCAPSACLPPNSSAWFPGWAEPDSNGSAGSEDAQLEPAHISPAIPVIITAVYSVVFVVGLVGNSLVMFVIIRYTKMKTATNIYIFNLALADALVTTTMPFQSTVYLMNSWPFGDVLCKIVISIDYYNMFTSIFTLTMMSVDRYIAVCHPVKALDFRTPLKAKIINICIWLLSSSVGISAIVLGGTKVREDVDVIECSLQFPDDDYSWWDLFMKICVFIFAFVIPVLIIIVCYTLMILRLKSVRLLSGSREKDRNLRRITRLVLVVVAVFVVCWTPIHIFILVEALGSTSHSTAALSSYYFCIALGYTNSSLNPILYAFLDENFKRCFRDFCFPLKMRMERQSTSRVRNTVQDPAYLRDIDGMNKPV
Chain of Mu-type opioid receptor (P35372 whole entry): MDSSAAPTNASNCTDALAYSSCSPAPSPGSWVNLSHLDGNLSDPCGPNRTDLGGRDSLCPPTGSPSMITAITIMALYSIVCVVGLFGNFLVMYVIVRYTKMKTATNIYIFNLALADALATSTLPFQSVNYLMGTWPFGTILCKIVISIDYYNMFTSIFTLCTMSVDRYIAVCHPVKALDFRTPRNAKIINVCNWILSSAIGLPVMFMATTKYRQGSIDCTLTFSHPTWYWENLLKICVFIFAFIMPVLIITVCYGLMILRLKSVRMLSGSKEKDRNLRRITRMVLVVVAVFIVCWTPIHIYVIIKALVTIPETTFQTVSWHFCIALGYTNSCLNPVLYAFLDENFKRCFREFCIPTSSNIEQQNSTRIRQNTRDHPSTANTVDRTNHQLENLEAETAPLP
Chain of Delta-type opioid receptor (P41143 whole entry): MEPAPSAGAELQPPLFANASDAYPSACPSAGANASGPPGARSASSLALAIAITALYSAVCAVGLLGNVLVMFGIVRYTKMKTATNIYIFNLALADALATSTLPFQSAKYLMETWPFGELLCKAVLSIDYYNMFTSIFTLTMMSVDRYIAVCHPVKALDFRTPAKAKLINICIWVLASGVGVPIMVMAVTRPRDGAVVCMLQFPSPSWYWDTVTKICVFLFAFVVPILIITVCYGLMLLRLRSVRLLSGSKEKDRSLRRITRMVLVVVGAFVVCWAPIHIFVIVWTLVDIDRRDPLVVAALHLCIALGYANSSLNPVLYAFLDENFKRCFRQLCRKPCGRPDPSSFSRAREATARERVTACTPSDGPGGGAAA
Chain of Neurotensin receptor type 1 (P30989 whole entry): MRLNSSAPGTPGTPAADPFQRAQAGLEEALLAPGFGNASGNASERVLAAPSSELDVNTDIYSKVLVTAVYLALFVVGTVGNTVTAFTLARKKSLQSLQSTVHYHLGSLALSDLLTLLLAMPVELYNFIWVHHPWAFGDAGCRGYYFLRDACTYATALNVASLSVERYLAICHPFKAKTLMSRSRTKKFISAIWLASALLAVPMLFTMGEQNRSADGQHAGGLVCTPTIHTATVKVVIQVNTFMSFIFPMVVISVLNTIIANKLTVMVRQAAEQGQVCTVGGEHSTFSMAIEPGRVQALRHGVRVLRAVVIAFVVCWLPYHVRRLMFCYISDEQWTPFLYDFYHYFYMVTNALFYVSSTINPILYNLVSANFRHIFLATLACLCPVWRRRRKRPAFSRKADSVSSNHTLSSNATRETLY
Chain of NACHT, LRR and PYD domains-containing protein 3 (Q96P20 whole entry, the tested form may be a part): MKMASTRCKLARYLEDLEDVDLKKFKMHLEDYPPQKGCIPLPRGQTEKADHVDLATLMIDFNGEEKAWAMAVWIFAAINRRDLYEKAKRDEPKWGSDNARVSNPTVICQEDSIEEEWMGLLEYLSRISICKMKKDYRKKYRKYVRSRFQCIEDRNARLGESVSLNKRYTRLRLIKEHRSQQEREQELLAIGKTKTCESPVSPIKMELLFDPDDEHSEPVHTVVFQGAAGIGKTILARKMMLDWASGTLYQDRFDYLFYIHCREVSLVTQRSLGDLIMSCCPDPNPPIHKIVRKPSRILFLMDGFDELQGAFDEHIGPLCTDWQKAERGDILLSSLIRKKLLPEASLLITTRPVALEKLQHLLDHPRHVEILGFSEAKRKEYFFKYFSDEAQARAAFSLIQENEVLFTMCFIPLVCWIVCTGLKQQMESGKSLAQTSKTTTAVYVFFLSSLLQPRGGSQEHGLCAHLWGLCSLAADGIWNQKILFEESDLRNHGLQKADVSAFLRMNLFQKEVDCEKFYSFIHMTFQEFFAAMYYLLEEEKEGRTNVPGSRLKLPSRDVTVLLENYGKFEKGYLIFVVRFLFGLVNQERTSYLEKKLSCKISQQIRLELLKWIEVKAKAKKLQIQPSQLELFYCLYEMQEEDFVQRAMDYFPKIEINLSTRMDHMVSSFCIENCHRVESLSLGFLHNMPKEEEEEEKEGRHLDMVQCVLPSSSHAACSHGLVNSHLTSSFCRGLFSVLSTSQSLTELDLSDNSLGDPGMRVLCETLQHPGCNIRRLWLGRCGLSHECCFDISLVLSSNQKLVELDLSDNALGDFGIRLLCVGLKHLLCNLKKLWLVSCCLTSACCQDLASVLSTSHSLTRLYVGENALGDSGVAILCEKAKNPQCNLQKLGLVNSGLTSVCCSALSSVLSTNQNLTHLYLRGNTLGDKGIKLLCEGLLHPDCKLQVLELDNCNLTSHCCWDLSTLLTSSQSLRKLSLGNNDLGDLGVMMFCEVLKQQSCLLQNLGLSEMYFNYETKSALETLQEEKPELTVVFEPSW
Chain of Dual specificity protein phosphatase 3 (P51452 whole entry): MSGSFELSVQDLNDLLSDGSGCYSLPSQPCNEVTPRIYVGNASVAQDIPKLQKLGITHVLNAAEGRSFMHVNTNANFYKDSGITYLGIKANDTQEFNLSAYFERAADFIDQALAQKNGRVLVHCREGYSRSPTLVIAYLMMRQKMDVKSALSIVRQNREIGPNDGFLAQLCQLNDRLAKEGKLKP
Chain of Low molecular weight phosphotyrosine protein phosphatase (P24666 whole entry): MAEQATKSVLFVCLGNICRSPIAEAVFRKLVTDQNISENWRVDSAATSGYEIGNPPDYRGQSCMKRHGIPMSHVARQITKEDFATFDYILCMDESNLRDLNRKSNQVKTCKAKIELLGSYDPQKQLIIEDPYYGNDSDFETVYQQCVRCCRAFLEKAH

Q: With `O=C(CSc1ccc2ccccc2n1)Nc1nsc(-c2ccc(Cl)cc2)n1` as the molecule, how does the IC50 [1] read?
A: 931 nM (active)

Q: What about the IC50 [2] of the same molecule?
A: 6.74 µM (active)

Q: And the IC50 [3]?
A: 11.7 µM (active)

Q: For `OC(CNc1ccnc2cc(Cl)ccc12)CNC1CCCCC1` (stereo unspecified), which IC50 [4] is on record?
A: > 150 µM (active)

Q: For `O=C(Cn1c(=O)c2cccn2c2cc(Br)cnc21)NCCCN1CCN(c2ccc(Cl)cc2)CC1`, which IC50 (Mu-type opioid receptor) is on record?
A: 5.32 µM (active)

Q: What about the IC50 [5] of the same molecule?
A: > 32 µM (inactive)

Q: And the IC50 [6]?
A: > 20 µM (inactive)

Q: What about the IC50 [7] of the same molecule?
A: > 32 µM (inactive)

Q: Which EC50 [8] does the source give for `O=C(COc1ccc(F)cc1Cl)Nc1nnc(-c2ccc(F)cc2)o1` here?
A: 1.9 µM (active)

Q: Which IC50 (Mu-type opioid receptor) does the source give for `Cc1ccc(S(=O)(=O)NCc2ccc(C(=O)NCCCN3CCN(c4ccccc4)CC3)cc2)cc1` here?
A: 0.469 µM (active)

Q: What about the IC50 [9] of the same molecule?
A: > 20 µM (inactive)

Q: And the IC50 [10]?
A: > 20 µM (inactive)

Q: And the IC50 [5]?
A: > 32 µM (inactive)

Q: And the IC50 [7]?
A: > 32 µM (inactive)

Q: Which results are given for `O=C(CSc1nc2ccccc2c(=O)n1-c1ccc(F)c(Cl)c1)Nc1ccc2c(c1)CCC2`?
A: CC50 (Vero [11]): > 66.6 µM (active); CC50 (Vero [12]): > 100 µM (active); CC50 (Vero [13]): > 40 µM (active); IC50 (Vero [14]): 19.3 µM (active)

Q: For `O=C(c1cccc(F)c1)n1nnc2ccccc21`, which IC50 (Coagulation factor XII) is on record?
A: 10.5 µM (active)

Q: Which results are given for `CCCCCCCCn1c2c(c(=N)c3ccccc31)CCC2`?
A: EC50 [15]: < 100 nM (active); IC50 [16]: 7.78 µM (not active); EC50 [17]: 8.28 µM (active); IC50 [18]: 11.9 µM (active); EC50 [19]: 17.7 µM (active); IC50 [20]: 59.4 µM (inactive); EC50 (cells): 14 nM (active)
